Active and inactive are the calls of the source. No cut-off for these calls is given here.
Molecular target: 5-hydroxytryptamine receptor 6 (Homo sapiens, UniProt P50406)
Test: Displacement of [3H]-LSD from recombinant human 5-HT6 receptor expressed in HEK293 cells after 60 mins
Assay type: cell-based
Settings: not given

Chain of 5-hydroxytryptamine receptor 6 (P50406 whole entry): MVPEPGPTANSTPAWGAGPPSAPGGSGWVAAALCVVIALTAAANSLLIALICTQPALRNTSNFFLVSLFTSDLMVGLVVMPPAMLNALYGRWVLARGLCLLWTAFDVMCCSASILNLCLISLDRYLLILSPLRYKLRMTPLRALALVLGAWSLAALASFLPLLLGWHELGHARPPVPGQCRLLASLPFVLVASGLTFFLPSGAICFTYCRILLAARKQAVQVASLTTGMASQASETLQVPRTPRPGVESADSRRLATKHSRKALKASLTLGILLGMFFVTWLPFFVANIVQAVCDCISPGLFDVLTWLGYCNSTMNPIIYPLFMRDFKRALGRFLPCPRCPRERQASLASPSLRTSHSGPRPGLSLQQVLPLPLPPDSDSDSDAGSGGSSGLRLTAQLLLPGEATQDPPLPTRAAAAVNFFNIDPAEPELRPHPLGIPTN

Structure (SMILES) | Ki [µM]
COc1ccc2c(CN3CCN(C)CC3)cn(S(=O)(=O)c3ccc(C(C)C)cc3)c2c1 | 0.0361
CN1CCN(Cc2cn(S(=O)(=O)c3ccc(Cl)cc3Cl)c3ccccc23)CC1 | 0.0282
CN1CCN(Cc2cn(S(=O)(=O)c3ccc(Br)cc3)c3ccc(F)cc23)CC1 | 0.0092
COc1ccc2c(CN3CCN(C)CC3)cn(S(=O)(=O)c3ccc(F)cc3)c2c1 | 0.239
CN1CCN(Cc2cn(S(=O)(=O)c3cccc(F)c3)c3ccccc23)CC1 | 0.058
CN1CCN(Cc2cn(S(=O)(=O)c3ccccc3F)c3ccccc23)CC1 | 0.0078
O=C(c1ccccc1)N1CCN(Cc2cn(S(=O)(=O)c3ccccc3Br)c3ccccc23)CC1 | 0.365
CN1CCN(Cc2cn(S(=O)(=O)c3ccc(F)cc3)c3ccc(O)cc23)CC1 | 0.0349
CC(=O)N1CCN(Cc2cn(S(=O)(=O)c3ccccc3Br)c3ccccc23)CC1 | 0.385
CN1CCN(Cc2cn(S(=O)(=O)c3ccc(OC(F)(F)F)cc3)c3ccccc23)CC1 | 0.15
COc1ccc2c(c1)c(CN1CCN(C)CC1)c(Cl)n2S(=O)(=O)c1ccc(C(C)C)cc1 | 0.0296
CN1CCN(Cc2cn(S(=O)(=O)c3ccccc3)c3ncccc23)CC1 | 0.277
CC(C)c1ccc(S(=O)(=O)n2cc(CN3CCN(C)CC3)c3cc(O)ccc32)cc1 | 0.05
COc1cccc2c1c(CN1CCN(C)CC1)cn2S(=O)(=O)c1ccc(F)cc1 | 0.0184
CCN1CCN(Cc2cn(S(=O)(=O)c3ccc(C(C)C)cc3)c3ccc(OC)cc23)CC1 | 0.0017
CN1CCN(Cc2cn(S(=O)(=O)c3ccccc3)c3cc(Cl)ccc23)CC1 | 0.0357
CN1CCN(Cc2cn(S(=O)(=O)c3ccc(F)cc3)c3ccc(Cl)cc23)CC1 | 0.0175
CN1CCN(CCc2cn(S(=O)(=O)c3cccc(Br)c3)c3ccc(Br)cc23)CC1 | 0.289
CC(C)c1ccc(S(=O)(=O)n2cc(CN3CCN(C)CC3)c3c(Cl)cccc32)cc1 | 0.0092
CN1CCN(Cc2c[nH]c3ccccc23)CC1 | 0.482
CN1CCN(Cc2cn(S(=O)(=O)c3ccc(F)cc3Cl)c3ccccc23)CC1 | 0.029

Structure (SMILES) | Ki [µM]
CN1CCN(Cc2cn(S(=O)(=O)c3ccc(C#N)cc3)c3ccccc23)CC1 | 0.0905
CN1CCN(CCc2cn(S(=O)(=O)c3ccccc3Br)c3ccc(Br)cc23)CC1 | 0.398
CN1CCN(Cc2cn(S(=O)(=O)c3ccc(F)c(F)c3)c3ccccc23)CC1 | 0.119
CCN1CCN(Cc2cn(S(=O)(=O)c3ccccc3Br)c3ccc(OC)cc23)CC1 | 0.0067
COc1ccc2c(c1)c(CN1CCNCC1)cn2S(=O)(=O)c1ccc(F)cc1 | 0.0069
CN1CCN(Cc2cn(S(=O)(=O)c3cccc(Cl)c3)c3ccccc23)CC1 | 0.0163
CN1CCN(Cc2cn(S(=O)(=O)c3ccccc3Br)c3ccc([N+](=O)[O-])cc23)CC1 | 0.2
CCN1CCN(Cc2cn(S(=O)(=O)c3ccc(F)cc3)c3ccc(OC)cc23)CC1 | 0.02
CN1CCN(Cc2cn(S(=O)(=O)c3ccccc3Br)c3ccc(O)cc23)CC1 | 0.0187
O=S(=O)(c1ccccc1Br)n1cc(CN2CCNCC2)c2ncccc21 | 0.095
COc1ccc2c(c1)c(CN1CCNCC1)cn2S(=O)(=O)c1ccc(C(C)C)cc1 | 0.0057
CN1CCN(Cc2cn(S(=O)(=O)c3cccc4ccccc34)c3ccccc23)CC1 | 0.0115
CC(C)c1ccc(S(=O)(=O)n2cc(CN3CCN(C)CC3)c3ccccc32)cc1 | 0.006
COc1ccc2c(c1)c(CN1CCN(C)CC1)nn2S(=O)(=O)c1ccccc1Br | 0.348
Cc1c(CN2CCN(C)CC2)c2ccccc2n1S(=O)(=O)c1ccc(F)cc1 | 0.0556
O=S(=O)(c1ccccc1Br)n1cc(CN2CCNCC2)c2ccccc21 | 0.0045
CN1CCN(Cc2cn(Cc3ccccc3Br)c3ccccc23)CC1 | 0.312
CN1CCN(Cc2cn(S(=O)(=O)c3ccc(Br)cc3)c3ccc(OCC(F)(F)F)cc23)CC1 | 0.0963
CN1CCN(Cc2cn(S(=O)(=O)c3ccccc3Br)c3ccccc23)CC1 | 0.0102
CN1CCN(Cc2cn(S(=O)(=O)c3ccc(Br)cc3)c3ccccc23)CC1 | 0.00213
COc1cccc2c1c(CN1CCN(C)CC1)cn2S(=O)(=O)c1ccccc1Br | 0.0143

Structure (SMILES) | Ki [µM]
CC(C)c1ccc(S(=O)(=O)n2cc(CN3CCN(C)CC3)c3cc(Br)ccc32)cc1 | 0.0276
Cc1ccc(C)c(S(=O)(=O)n2cc(CN3CCN(C)CC3)c3ccccc32)c1 | 0.064
CN1CCN(Cc2cn(S(=O)(=O)c3cccc(Br)c3)c3ccccc23)CC1 | 0.019
COc1ccc2c(c1)c(CN1CCN(CCF)CC1)cn2S(=O)(=O)c1ccccc1Br | 0.348
COc1ccc(OC)c(S(=O)(=O)n2cc(CN3CCN(C)CC3)c3ccccc32)c1 | 0.091
O=S(=O)(c1ccccc1)n1cc(CN2CCNCC2)c2ccccc21 | 0.0075
CC(C)Oc1ccc2c(c1)c(CN1CCN(C)CC1)cn2S(=O)(=O)c1ccccc1Br | 0.0363
Cc1ccc(S(=O)(=O)n2cc(CN3CCN(C)CC3)c3ccccc32)cc1 | 0.0096
CN1CCN(Cc2cn(S(=O)(=O)c3ccccc3Br)c3ccc(F)cc23)CC1 | 0.012
CN1CCN(Cc2cn(S(=O)(=O)c3ccc(F)cc3F)c3ccccc23)CC1 | 0.03
CSc1ccc2c(c1)c(CN1CCN(C)CC1)cn2S(=O)(=O)c1ccccc1Br | 0.194
CN1CCN(Cc2cn(S(=O)(=O)c3ccc(F)cc3)c3cccc(Cl)c23)CC1 | 0.0312
CN1CCN(Cc2cn(S(=O)(=O)c3ccc(F)cc3)c3ccc(Br)cc23)CC1 | 0.017
CN1CCN(Cc2cn(C(=O)c3ccccc3Br)c3ccc(F)cc23)CC1 | 0.326
CN1CCN(Cc2cn(S(=O)(=O)c3ccc(Br)cc3)c3cc(Cl)ccc23)CC1 | 0.0597
CN1CCN(Cc2cn(S(=O)(=O)c3ccccc3Br)c3cccc(Cl)c23)CC1 | 0.0235
CN1CCN(Cc2cn(S(=O)(=O)c3c(F)cccc3F)c3ccccc23)CC1 | 0.064
CN1CCN(Cc2cn(S(=O)(=O)c3c(Cl)cccc3Cl)c3ccccc23)CC1 | 0.1
O=S(=O)(c1ccccc1Br)n1cc(CN2CCN(Cc3ccccc3)CC2)c2ccccc21 | 0.133

Molecular target: T1, 5-hydroxytryptamine receptor 1A (Homo sapiens) (UniProt P08908)
T1 sequence (whole entry): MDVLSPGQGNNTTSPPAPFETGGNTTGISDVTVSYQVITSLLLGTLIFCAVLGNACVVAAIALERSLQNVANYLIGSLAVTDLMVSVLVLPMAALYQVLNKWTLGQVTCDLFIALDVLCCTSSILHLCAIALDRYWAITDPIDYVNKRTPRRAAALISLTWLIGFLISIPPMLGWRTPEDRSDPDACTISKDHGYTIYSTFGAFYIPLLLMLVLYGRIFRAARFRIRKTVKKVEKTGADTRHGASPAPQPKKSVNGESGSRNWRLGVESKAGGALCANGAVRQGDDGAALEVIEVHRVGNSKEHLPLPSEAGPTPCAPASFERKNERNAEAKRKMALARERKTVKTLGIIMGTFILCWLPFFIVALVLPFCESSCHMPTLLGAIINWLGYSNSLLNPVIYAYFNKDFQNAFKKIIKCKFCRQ
Test: Displacement of [3H]-8-OH-DPAT from recombinant human 5-HT1A receptor expressed in HEK293 EBNA cell membranes after 120 mins by microbeta scintillation counting analysis
Settings: not given

Structure (SMILES) | Activity
COc1ccc2c(c1)c(CN1CCN(C)CC1)cn2S(=O)(=O)c1ccc(F)cc1.CS(=O)(=O)O.CS(=O)(=O)O | inactive

Molecular target: T2, 5-hydroxytryptamine receptor 2C (Homo sapiens) (UniProt P28335)
T2 sequence (whole entry): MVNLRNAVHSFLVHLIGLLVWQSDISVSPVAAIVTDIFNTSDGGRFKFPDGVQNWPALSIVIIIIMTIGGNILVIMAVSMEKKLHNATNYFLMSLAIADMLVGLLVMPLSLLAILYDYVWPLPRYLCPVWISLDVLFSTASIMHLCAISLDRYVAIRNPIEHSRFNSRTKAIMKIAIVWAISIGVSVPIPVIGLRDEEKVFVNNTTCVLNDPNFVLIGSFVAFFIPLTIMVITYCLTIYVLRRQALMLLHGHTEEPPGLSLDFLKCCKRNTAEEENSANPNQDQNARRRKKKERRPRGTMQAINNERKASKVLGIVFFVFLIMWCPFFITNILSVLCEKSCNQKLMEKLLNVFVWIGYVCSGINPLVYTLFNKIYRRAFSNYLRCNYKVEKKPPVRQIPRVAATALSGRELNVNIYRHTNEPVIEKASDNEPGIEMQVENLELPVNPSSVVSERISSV
Test: Displacement of [3H]-Mesulergine from recombinant human 5-HT2C receptor expressed in HEK293 cell membranes after 180 mins by microbeta scintillation counting analysis
Settings: not given

Structure (SMILES) | Activity
COc1ccc2c(c1)c(CN1CCN(C)CC1)cn2S(=O)(=O)c1ccc(F)cc1.CS(=O)(=O)O.CS(=O)(=O)O | inactive

Molecular target: 5-hydroxytryptamine receptor 4 (Homo sapiens) (UniProt Q13639)
Sequence (Q13639 whole entry): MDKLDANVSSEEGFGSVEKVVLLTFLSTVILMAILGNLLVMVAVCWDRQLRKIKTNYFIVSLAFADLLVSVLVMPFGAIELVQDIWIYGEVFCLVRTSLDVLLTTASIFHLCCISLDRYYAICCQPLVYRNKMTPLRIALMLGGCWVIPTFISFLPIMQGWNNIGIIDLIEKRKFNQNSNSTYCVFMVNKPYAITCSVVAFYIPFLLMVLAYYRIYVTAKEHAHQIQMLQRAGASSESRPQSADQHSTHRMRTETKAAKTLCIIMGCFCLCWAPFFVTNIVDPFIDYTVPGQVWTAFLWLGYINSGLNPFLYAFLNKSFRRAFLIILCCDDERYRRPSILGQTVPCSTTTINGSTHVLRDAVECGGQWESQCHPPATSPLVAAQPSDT
Test: Displacement of [3H]-GR113808 from recombinant human 5-HT4B receptor expressed in Chem1 cell membranes after 120 mins by microbeta scintillation counting analysis
Settings: not given

Structure (SMILES) | Activity
COc1ccc2c(c1)c(CN1CCN(C)CC1)cn2S(=O)(=O)c1ccc(F)cc1.CS(=O)(=O)O.CS(=O)(=O)O | inactive

Molecular target: 5-hydroxytryptamine receptor 7 (Rattus norvegicus) (UniProt P32305)
Sequence (P32305 whole entry): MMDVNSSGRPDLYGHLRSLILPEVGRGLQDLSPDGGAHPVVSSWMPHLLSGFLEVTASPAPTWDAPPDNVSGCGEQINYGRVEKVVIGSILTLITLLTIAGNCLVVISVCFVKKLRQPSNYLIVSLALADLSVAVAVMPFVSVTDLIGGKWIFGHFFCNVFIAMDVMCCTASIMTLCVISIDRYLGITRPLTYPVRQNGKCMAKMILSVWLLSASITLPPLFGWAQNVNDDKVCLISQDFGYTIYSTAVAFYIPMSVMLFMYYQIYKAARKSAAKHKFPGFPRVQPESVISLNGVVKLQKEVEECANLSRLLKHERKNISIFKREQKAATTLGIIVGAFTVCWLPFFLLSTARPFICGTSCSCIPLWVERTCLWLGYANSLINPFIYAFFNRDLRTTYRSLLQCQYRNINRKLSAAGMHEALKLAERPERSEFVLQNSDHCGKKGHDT
Test: Binding affinity to recombinant rat 5-HT7 receptor expressed in CHOK1 cells assessed as inhibition of 5-HT stimulated cAMP accumulation after 4 hrs by luciferase reporter gene assay
Assay type: cell-based
Settings: not given

Structure (SMILES) | Activity
COc1ccc2c(c1)c(CN1CCN(C)CC1)cn2S(=O)(=O)c1ccc(F)cc1.CS(=O)(=O)O.CS(=O)(=O)O | inactive

Molecular target: Cytochrome P450 2D6 (Homo sapiens, UniProt P10635)
Sequence (P10635 whole entry): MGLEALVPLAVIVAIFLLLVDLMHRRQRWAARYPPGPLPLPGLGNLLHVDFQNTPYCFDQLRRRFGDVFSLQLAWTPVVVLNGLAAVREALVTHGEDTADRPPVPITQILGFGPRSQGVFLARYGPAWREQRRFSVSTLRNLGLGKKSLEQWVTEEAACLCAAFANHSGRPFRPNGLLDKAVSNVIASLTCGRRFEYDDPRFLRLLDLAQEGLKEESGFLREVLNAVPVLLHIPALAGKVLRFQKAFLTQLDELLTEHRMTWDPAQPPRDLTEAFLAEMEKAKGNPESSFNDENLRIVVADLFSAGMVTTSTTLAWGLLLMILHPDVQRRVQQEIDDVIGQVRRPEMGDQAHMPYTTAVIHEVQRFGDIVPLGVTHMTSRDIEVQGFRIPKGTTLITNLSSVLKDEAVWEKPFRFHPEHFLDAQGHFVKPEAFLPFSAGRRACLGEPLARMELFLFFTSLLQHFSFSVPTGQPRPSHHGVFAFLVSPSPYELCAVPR
Test: Inhibition of CYP2D6 in human liver microsomes in presence of NADPH by LC-MS/MS analysis
Settings: not given

Structure (SMILES) | IC50 [µM]
COc1ccc2c(c1)c(CN1CCN(C)CC1)cn2S(=O)(=O)c1ccc(F)cc1.CS(=O)(=O)O.CS(=O)(=O)O | 12.6

Tested on: not listed separately
Test: Cmax in Wistar rat at 10 mg/kg, po by LC-MS/MS analysis
Assay type: ADME, organism-based
Design: dose 10 mg/kg, route oral
Settings: in vivo

Structure (SMILES) | Cmax [µg/mL]
COc1ccc2c(c1)c(CN1CCN(C)CC1)cn2S(=O)(=O)c1ccc(F)cc1.CS(=O)(=O)O.CS(=O)(=O)O | 0.055

Tested on: not listed separately
Test: AUC (0 to t) in Wistar rat at 10 mg/kg, po by LC-MS/MS analysis
Assay type: ADME, organism-based
Settings: Wistar, in vivo

Structure (SMILES) | AUC(0-t) [µg·h/mL]
COc1ccc2c(c1)c(CN1CCN(C)CC1)cn2S(=O)(=O)c1ccc(F)cc1.CS(=O)(=O)O.CS(=O)(=O)O | 0.249

Tested on: not listed separately
Test: Oral bioavailability in Wistar rat at 10 mg/kg by LC-MS/MS analysis
Assay type: ADME, organism-based
Settings: Wistar, in vivo

Structure (SMILES) | bioavailability [%]
COc1ccc2c(c1)c(CN1CCN(C)CC1)cn2S(=O)(=O)c1ccc(F)cc1.CS(=O)(=O)O.CS(=O)(=O)O | 13.5

Tested on: not listed separately
Test: Half life in Wistar rat at 10 mg/kg, iv by LC-MS/MS analysis
Assay type: ADME, organism-based
Settings: in vivo

Structure (SMILES) | half-life [h]
COc1ccc2c(c1)c(CN1CCN(C)CC1)cn2S(=O)(=O)c1ccc(F)cc1.CS(=O)(=O)O.CS(=O)(=O)O | 2.52

Tested on: not listed separately
Test: Apparent volume of distribution in Wistar rat at 10 mg/kg, iv by LC-MS/MS analysis
Assay type: ADME, organism-based
Settings: in vivo, read-out: Vz

Structure (SMILES) | Vd [L/kg]
COc1ccc2c(c1)c(CN1CCN(C)CC1)cn2S(=O)(=O)c1ccc(F)cc1.CS(=O)(=O)O.CS(=O)(=O)O | 19.2

Tested on: not listed separately
Test: Clearance in Wistar rat at 10 mg/kg, iv by LC-MS/MS analysis
Assay type: ADME, organism-based
Settings: in vivo

Structure (SMILES) | clearance [L/h/kg]
COc1ccc2c(c1)c(CN1CCN(C)CC1)cn2S(=O)(=O)c1ccc(F)cc1.CS(=O)(=O)O.CS(=O)(=O)O | 5.52

Molecular target: Cytochrome P450 3A4 (Homo sapiens, UniProt P08684)
Sequence (P08684 whole entry): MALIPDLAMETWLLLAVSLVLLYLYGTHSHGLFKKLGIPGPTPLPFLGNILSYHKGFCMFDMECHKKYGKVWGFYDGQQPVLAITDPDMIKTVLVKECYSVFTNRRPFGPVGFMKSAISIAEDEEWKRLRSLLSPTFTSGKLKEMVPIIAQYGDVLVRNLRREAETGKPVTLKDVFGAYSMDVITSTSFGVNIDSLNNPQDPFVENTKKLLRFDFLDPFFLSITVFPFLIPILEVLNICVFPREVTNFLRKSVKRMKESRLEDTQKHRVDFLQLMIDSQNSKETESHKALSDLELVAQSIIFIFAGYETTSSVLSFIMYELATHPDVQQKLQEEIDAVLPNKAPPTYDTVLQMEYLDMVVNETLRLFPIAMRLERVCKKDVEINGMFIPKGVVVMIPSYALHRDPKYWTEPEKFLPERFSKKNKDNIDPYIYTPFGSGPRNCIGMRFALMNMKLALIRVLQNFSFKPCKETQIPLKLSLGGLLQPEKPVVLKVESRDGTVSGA
Settings: not given

Structure (SMILES) | IC50 [µM]
COc1ccc2c(c1)c(CN1CCN(C)CC1)cn2S(=O)(=O)c1ccc(F)cc1.CS(=O)(=O)O.CS(=O)(=O)O | 1.71

Source: ChEMBL document CHEMBL4007422 (J Med Chem, 2017)
